Where two headings read alike, the source gives them in different places.
Target: T1, NLRP3 inflammasome (Homo sapiens, UniProt Q96P20)
T1 construct: host or cells: THP1-Null cells (PMA-differentiated, LPS-primed, nigericin-stimulated)
Assay: Evaluation of NLRP3 inflammasome inhibitory activity (inhibition of IL-1β production in LPS/Nigericin-stimulated THP1-Null cells, AlphaLISA)
Type: cell-based
Settings: PMA, 1 µg/mL Lipopolysaccharides 3 hours, Nigericin 7.5 µmol/L 1.5 hours
Protocol: The NLRP3 inflammasome inhibitory activity of test compounds were evaluated on the basis of the inhibitory activity of the IL-1β production in THP1-Null cells (Product Number: thp-null, InvivoGen).
The supernatant of the culture was removed, and thereto was added media for assay (25 µL/well) containing 1 µg/mL Lipopolysaccharides (Product Number: L2654, Sigma-Aldrich (registered trademark)). […] The supernatant of the culture was removed. […] A solution containing a test compound (20 µL/well) was added to test compound-setting wells. […] The supernatant of the culture was cryonically stored (set at -20°C) until measurement of IL-1β.
The amount of IL-1β in the culture supernatant was quantitated with AlphaLISA (registered trademark) Human IL-1β Detection Kit (Product Number: AL220C, Perkin Elmer). Fluorescence intensity was measured with a microplate reader EnSpier (Model number: 2300-00J, Perkin Elmer) or EnSight (Model number: HH34000000, Perkin Elmer) according to procedure manuals attached thereto. Inhibition rates of the test compound-setting wells were calculated on the basis of 100% for the blank-setting wells and 0% for the control-setting wells.

[1] = IL-1β production in THP1-Null cells, read-out: IC50
[2] = IL-1β production in THP1-Null cells
[3] = IC50, IL-1β production in THP1-Null cells

T1 sequence (Q96P20 whole entry): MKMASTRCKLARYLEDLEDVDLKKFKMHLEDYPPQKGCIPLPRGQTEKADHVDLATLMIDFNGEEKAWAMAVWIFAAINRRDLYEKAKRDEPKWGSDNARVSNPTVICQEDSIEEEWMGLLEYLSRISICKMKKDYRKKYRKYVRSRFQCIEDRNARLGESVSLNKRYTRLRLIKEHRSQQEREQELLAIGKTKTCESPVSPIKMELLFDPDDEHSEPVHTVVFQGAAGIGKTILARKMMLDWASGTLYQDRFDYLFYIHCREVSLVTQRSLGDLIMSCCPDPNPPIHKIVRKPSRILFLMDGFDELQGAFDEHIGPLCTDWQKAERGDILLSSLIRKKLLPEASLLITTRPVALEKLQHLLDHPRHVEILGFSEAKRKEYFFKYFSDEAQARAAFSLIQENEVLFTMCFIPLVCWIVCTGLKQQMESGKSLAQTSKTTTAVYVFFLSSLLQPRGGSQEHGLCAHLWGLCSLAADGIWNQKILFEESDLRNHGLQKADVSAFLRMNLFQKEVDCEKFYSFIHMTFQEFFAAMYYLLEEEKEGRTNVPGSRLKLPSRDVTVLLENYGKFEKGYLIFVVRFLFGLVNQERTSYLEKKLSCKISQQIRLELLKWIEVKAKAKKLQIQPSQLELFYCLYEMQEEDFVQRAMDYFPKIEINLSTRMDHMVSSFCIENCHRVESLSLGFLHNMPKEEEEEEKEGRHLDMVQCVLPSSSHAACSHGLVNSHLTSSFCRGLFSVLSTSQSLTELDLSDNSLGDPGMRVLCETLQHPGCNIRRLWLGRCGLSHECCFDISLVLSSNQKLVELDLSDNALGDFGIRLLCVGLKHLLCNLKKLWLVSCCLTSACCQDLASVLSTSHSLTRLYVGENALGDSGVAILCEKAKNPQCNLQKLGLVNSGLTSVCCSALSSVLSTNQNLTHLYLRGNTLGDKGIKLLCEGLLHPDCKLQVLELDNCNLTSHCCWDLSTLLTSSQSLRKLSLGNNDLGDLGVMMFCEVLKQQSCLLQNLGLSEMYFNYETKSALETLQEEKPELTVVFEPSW

Compound	IC50 [1] [nM]	also measured
Cc1cc(Br)cc(C)c1-n1cc2c(=O)[nH]c(C3COCCO3)nc2n1 (racemic) [Example 28]	190	
Cc1cc(C2CC2)cc(C)c1-n1cc2c(=O)[nH]c(C3CCOC3)nc2n1 (racemic) [Example 29]		IC50 [2]: 9 nM
Cc1ccc(-n2cc3c(=O)[nH]c(C4CCCO4)nc3n2)c(C)c1 (racemic) [Example 31]	790	
Cc1ccc(-n2cc3c(=O)[nH]c(C4CCS(=O)(=O)C4)nc3n2)c(C)c1 (racemic) [Example 32]	270	
Cc1ccc(-n2cc3c(=O)[nH]c(C4CCCOC4)nc3n2)c(C)c1 (racemic) [Example 34]	200	
Cc1ccc(-n2cc3c(=O)[nH]c(C4CCO4)nc3n2)c(C)c1 (racemic) [Example 35]	2100	
Cc1cc(C2CC2)cc(C)c1-n1cc2c(=O)[nH]c(C3CCO3)nc2n1 (racemic) [Example 36]	150	
Cc1ccc(-n2cc3c(=O)[nH]c(C4CCCCO4)nc3n2)c(C)c1 (racemic) [Example 40]	430	
COC(C)c1nc2nn(-c3c(C)cc(C4CC4)cc3C)cc2c(=O)[nH]1 (racemic) [Example 41]	93	
Cc1cc(Br)cc(C)c1-n1cc2c(=O)[nH]c(COC3CCCOC3)nc2n1 (racemic) [Example 56]	350	
Cc1cc(C2CC2)cc(C)c1-n1cc2c(=O)[nH]c(COC3CCCOC3)nc2n1 (racemic) [Example 57]	340	
Cc1cc(OC(F)F)cc(C)c1-n1cc2c(=O)[nH]c(C3CCOC3)nc2n1 (racemic) [Example 63]	45	
COC1(c2nc3nn(-c4c(C)cc(Br)cc4C)cc3c(=O)[nH]2)CCOC1 (racemic) [Example 86]	350	
Cc1cc(C2CC2)cc(C)c1-n1cc2c(=O)[nH]c(C3CC3F)nc2n1 (racemic) [Example 93]	8	
Cc1cc(Br)cc(C)c1-n1cc2c(=O)[nH]c(C3CC4CCN3CC4)nc2n1 (racemic) [Example 100]		IC50 [3]: 54 nM
Cc1cc(Br)cc(C)c1-n1cc2c(=O)[nH]c(CC3COCCO3)nc2n1 (racemic) [Example 113]	140	
Cc1cc(C2CC2)cc(C)c1-n1cc2c(=O)[nH]c(C3CC3(F)F)nc2n1 (racemic) [Example 114]	17	
Cc1cc(C2CC2)cc(C)c1-n1cc2c(=O)[nH]c(C34CCOCC3C4(F)F)nc2n1 (racemic) [Example 115]	430	
Cc1cc(Br)cc(C)c1-n1cc2c(=O)[nH]c(C34CCC(CO3)C4)nc2n1 (racemic) [Example 117]	240	
Cc1cc(C2CC2)cc(C)c1-n1cc2c(=O)[nH]c(C3CC4CCN3CC4)nc2n1 (racemic) [Example 119]		IC50 [3]: 31 nM

Compound	IC50 [1] [nM]	also measured
COCC1C(c2nc3nn(-c4c(C)cc(C5CC5)cc4C)cc3c(=O)[nH]2)C1(F)F (racemic) [Example 120]	40	
Cc1cc(C2CC2)cc(C)c1-n1cc2c(=O)[nH]c(C(C)O)nc2n1 (racemic) [Example 123]		IC50 [2]: 23 nM
Cc1cc(C2CC2)cc(C)c1-n1cc2c(=O)[nH]c(C3CC3CO)nc2n1 (racemic) [Example 124]	8	
Cc1cc(C(C)(F)F)cc(C)c1-n1cc2c(=O)[nH]c(C3CC3(F)F)nc2n1 (racemic) [Example 125]	24	
Cc1cc(Br)cc(C)c1-n1cc2c(=O)[nH]c(CC(O)C(F)(F)F)nc2n1 (racemic) [Example 126]	24	
COC(Cc1nc2nn(-c3c(C)cc(Br)cc3C)cc2c(=O)[nH]1)C(F)(F)F (racemic) [Example 127]	73	
Cc1cc(C2CC2)cc(C)c1-n1cc2c(=O)[nH]c(C(C)F)nc2n1 (racemic) [Example 128]	44	
Cc1cc(OC(F)F)cc(C)c1-n1cc2c(=O)[nH]c(C3CC3(F)F)nc2n1 (racemic) [Example 133]	41	
CCC(O)c1nc2nn(-c3c(C)cc(C4CC4)cc3C)cc2c(=O)[nH]1 (racemic) [Example 134]	24	
Cc1cc(Br)cc(C)c1-n1cc2c(=O)[nH]c(C(C)O)nc2n1 (racemic) [Example 137]	24	
Cc1cc(Br)cc(C)c1-n1cc2c(=O)[nH]c(C(O)C(F)(F)F)nc2n1 (racemic) [Example 138]	120	
Cc1cc(Br)cc(C)c1-n1cc2c(=O)[nH]c(C(O)C(F)F)nc2n1 (racemic) [Example 139]	36	
Cc1cc(Br)cc(C)c1-n1cc2c(=O)[nH]c(C(O)C3CC3)nc2n1 (racemic) [Example 140]	46	
Cc1cc(OC(F)F)cc(C)c1-n1cc2c(=O)[nH]c(C(C)O)nc2n1 (racemic) [Example 141, (RS)-2-{4-(difluoromethoxy)-2,6-dimethylphenyl}-6-(1-hydroxyethyl)-2,5-dihydro-4H-pyrazolo[3,4-d]pyrimidin-4-one]	61	
Cc1cc(C(C)(F)F)cc(C)c1-n1cc2c(=O)[nH]c([C@H]3C[C@@H]3F)nc2n1 (racemic) [Example 142, 2-[4-(1,1-difluoroethyl)-2,6-dimethylphenyl]-6-[(1RS,2SR)-2-fluorocyclopropyl]-2,5-dihydro-4H-pyrazolo[3,4-d]pyrimidin-4-one]	17	
COCC(O)Cc1nc2nn(-c3c(C)cc(C4CC4)cc3C)cc2c(=O)[nH]1 (racemic) [Example 143]	86	
Cc1cc(C(C)(F)F)cc(C)c1-n1cc2c(=O)[nH]c(C(C)O)nc2n1 (racemic) [Example 144, (RS)-2-{4-(1,1-difluoroethyl)-2,6-dimethylphenyl}-6-(1-hydroxyethyl)-2,5-dihydro-4H-pyrazolo[3,4-d]pyrimidin-4-one]	58	
Cc1cc(Br)cc(C)c1-n1cc2c(=O)[nH]c(C3CC3C(=O)N(C)C)nc2n1 (racemic) [Example 149]	22	
Cc1cc(Br)cc(C)c1-n1cc2c(=O)[nH]c(C3CC3C(N)=O)nc2n1 (racemic) [Example 150]	18	
Cc1cc(Br)cc(C)c1-n1cc2c(=O)[nH]c(C3CC3C#N)nc2n1 (racemic) [Example 151]	17	

Compound	IC50 [1] [nM]	also measured
Cc1cc(C2CC2)cc(C)c1-n1cc2c(=O)[nH]c([C@@H]3C[C@H]3C#N)nc2n1 (racemic) [Example 152]		IC50 [3]: 12 nM
Cc1cc(C2CC2)cc(C)c1-n1cc2c(=O)[nH]c(C(O)C(F)F)nc2n1 (racemic) [Example 158]		IC50 [2]: 26 nM
Cc1cc(Br)cc(C)c1-n1cc2c(=O)[nH]c(C3CCOCCO3)nc2n1 (racemic) [Example 160]	37	
Cc1cc(C2CC2)cc(C)c1-n1cc2c(=O)[nH]c(C3CCOCCO3)nc2n1 (racemic) [Example 163, (RS)-2-(4-cyclopropyl-2,6-dimethylphenyl)-6-(1,4-dioxepan-5-yl)-2,5-dihydro-4H-pyrazolo[3,4-d]pyrimidin-4-one]	23	
Cc1cc(OC(F)F)cc(C)c1-n1cc2c(=O)[nH]c(C(O)C(F)F)nc2n1 (racemic) [Example 167]	230	
Cc1cc(C(C)(F)F)cc(C)c1-n1cc2c(=O)[nH]c(C3CCOCCO3)nc2n1 (racemic) [Example 168]		IC50 [2]: 74 nM
Cc1cc(OC(F)F)cc(C)c1-n1cc2c(=O)[nH]c([C@@H]3C[C@H]3F)nc2n1 (racemic) [Example 171]		IC50 [2]: 24 nM
Cc1cc(Br)cc(C)c1-n1cc2c(=O)[nH]c(C3CC(F)(F)CCO3)nc2n1 (racemic) [Example 184]	51	
Cc1cc(Br)cc(C)c1-n1cc2c(=O)[nH]c(C3CC(F)(F)CO3)nc2n1 (racemic) [Example 189]	71	
Cc1cc(C2CC2)cc(C)c1-n1cc2c(=O)[nH]c(C3CC(F)(F)CO3)nc2n1 (racemic) [Example 190]	41	
Cc1cc(Br)cc(C)c1-n1cc2c(=O)[nH]c(C3CCC(F)(F)CO3)nc2n1 (racemic) [Example 191]	72	
Cc1cc(C2CC2)cc(C)c1-n1cc2c(=O)[nH]c(C3CC(F)(F)CCO3)nc2n1 (racemic) [Example 197]	36	
Cc1cc(C2CC2)cc(C)c1-n1cc2c(=O)[nH]c(C3CCOC3)nc2n1 (single isomer, unassigned) [Example 50]		IC50 [2]: 5 nM
Cc1cc(C2CC2)cc(C)c1-n1cc2c(=O)[nH]c(C3CCOC3)nc2n1 (single isomer, unassigned) [Example 51]		IC50 [2]: 24 nM
Cc1cc(C2CC2)cc(C)c1-n1cc2c(=O)[nH]c(C3(F)CCOC3)nc2n1 (single isomer, unassigned) [Example 78]		IC50 [2]: 33 nM
Cc1cc(C2CC2)cc(C)c1-n1cc2c(=O)[nH]c(C3(F)CCOC3)nc2n1 (single isomer, unassigned) [Example 79]		IC50 [2]: 75 nM
Cc1cc(Br)cc(C)c1-n1cc2c(=O)[nH]c(C3CCOCC3O)nc2n1 (single isomer, unassigned) [Example 104]	15	
COC1CC(c2nc3nn(-c4c(C)cc(Br)cc4C)cc3c(=O)[nH]2)C1 (single isomer, unassigned) [Example 121]		IC50 [2]: 38 nM
COC1CC(c2nc3nn(-c4c(C)cc(Br)cc4C)cc3c(=O)[nH]2)C1 (single isomer, unassigned) [Example 122]		IC50 [2]: 61 nM
Cc1cc(C(C)(F)F)cc(C)c1-n1cc2c(=O)[nH]c(C3(F)CCOC3)nc2n1 (single isomer, unassigned) [Example 129]		IC50 [2]: 50 nM

Reference: EP4671247A1, “SUBSTITUTED PYRAZOLOPYRIMIDINE COMPOUND AND PHARMACEUTICAL USE THEREOF” (Japan Tobacco Inc., priority 2023, dated 2024)
